Series [1] can be described thus: dynamic heat stability (rolling stability) in polyvinyl chloride. Particulars: 180° C, 20 rpm, 0.5 part phosphite per 100 parts PVC. The protocol: Each time 100 parts of a mass polyvinyl chloride having a K value of 60 were intimately mixed with
0.2 part of 2-phenyl-indole,
3.0 parts of epoxidized soybean oil
0.3 part of stearyl stearate
0.5 part of glycerol monostearate and
0.5 part each of respective phosphite of the invention.
To measure the dynamic heat stability (rolling stability) the mixtures were rolled on a two roll mill at 180° C. and with 20 revolutions per minute. At intervals of 10 minutes samples were taken from the rough sheet and the color of the samples was compared with the colors of a proper color chart. Rolling was continued until the rough sheet had turned black.
In the color chart used the individual notes have the following meaning: […]

Series [2] in a line: stability to hydrolysis (boiling in deionized water, titration of liberated phosphorous acid). The class given is physicochemical. Particulars: for degree of hydrolysis after 60 minutes: 1 h. The protocol:
The stability to hydrolysis was tested according to the process disclosed in DT-OS 2,144,181, pages 7/8. 5.0 g each of the respective phosphite were boiled for 20 and 60 minutes in 100 ml of deionized water. The mixture was then allowed to cool, it was filtered to remove residues, if any, and in the filtrate the liberated phosphorous acid was titrated with 0.1N KOH against bromophenol blue.
In the following table is indicated the degree of hydrolysis determined under the specified conditions as quotient of the actual consumption of KOH and the theoretically possible consumption with a complete hydrolysis.

Series [3] in a line: acute toxicity in male albino mice, per os. The class given is in vivo. The protocol:
To test the acute toxicities of the compounds of the invention male albino mice were fed as prescribed in the book "Grundlagen der experimentellen Arzneimittelforschung" by Leopold Ther, addition 1965.
The phosphite to be tested was administered per os, suspended in aqueous methyl cellulose (Tylose^R) solution, to groups of 5 test animals each, the doses being 1,000, 2,000, and 5,000 mg/kg of body weight.

Take `CCCCCCCCCCCCCCCCCCOP1OCC2(CO1)COP(OCCCCCCCCCCCCCCCCCC)OC2` (stereo not drawn) [distearyl-pentaerythrityl-diphosphite]: the “dynamic (rolling) stability, discoloration of rough sheet after a rolling time of 40'” value in series [1] (40') turned out to be 4. In addition, in series [1] (50'), the “dynamic (rolling) stability, discoloration of rough sheet after a rolling time of 50'” value worked out at 5.

In the case of “Di-(β-hydroxy-eicosyl)-mono-thiododecyl-mannityl-triphosphite [Example 5]”, in series [2], the “degree of hydrolysis after 20 minutes” value is listed as 1.0 % of theory and the “degree of hydrolysis after 60 minutes” value is 2.0 % of theory.

In the case of “Di-(β-hydroxy-triacontyl)-sorbityl-diphosphite [Example 2]”, in series [3] (acute), the toxicity assessment result is on record as “practically innocuous”. Moreover, the “deaths at the highest dosage” value in series [3] (per os, highest dose 5,000 mg/kg of body weight) is “no animal died”. The “degree of hydrolysis after 20 minutes” value in series [2] is recorded as 22.5 % of theory.

Turning to “Tri-(β-hydroxy-triacontyl)-sorbityl-triphosphite [Example 1]”, in series [2], the “degree of hydrolysis after 20 minutes” value was 1.8 % of theory and the “degree of hydrolysis after 60 minutes” value is reported as 2.4 % of theory.

Regarding “Di-(β-hydroxy-triacontyl)-mannityl-diphosphite [Example 3]”, in series [2], the “degree of hydrolysis after 20 minutes” value is recorded as 21.0 % of theory.

For the compound “Di-(β-hydroxy-triacontyl)-mono-thiododecyl-sorbityl-triphosphite [Example 4]”, in series [2], the “degree of hydrolysis after 20 minutes” value is recorded as 1.5 % of theory and the “degree of hydrolysis after 60 minutes” value is listed as 3.6 % of theory.
